SMILES strings stand for the structures.

These results are taken from publication PMC12246756 (Frontiers in Pharmacology, 2025).

The test system of one assay is MDA-MB 231. Kind of assay: cells. The class given is cell-based. Particulars: Homo sapiens, MTT assay, 48 h. Here is the method: (§1) Cell viability was assessed using the MTT assay, as outlined in previous studies ([Majeed et al., 2014]; [Amin et al., 2025]). Briefly, A549, A375, MCF-7 and MDA-MB231 cells (10 × 10^3 cells/well) were seeded in 96-well plates and incubated for 24 h at 37°C in a 5% CO2 atmosphere. After this incubation, the cells were treated with test compounds for another 48 h. At 44th hour of treatment, the cells were incubated with MTT (2.5 mg/mL) for additional 4 h. At 48th hour, DMSO was added (100 µL/well), to dissolve formazan crystals. Absorbance was measured at 570 nm. Cell viability was calculated relative to untreated controls. IC50 values were determined from independent triplicate experiments using GraphPad™ Prism 8.0 software. […]
(Tetrazolium assays rely on reduction of a dye to a coloured formazan, in cell work by metabolically active cells.)

The next assay relates to A375. Put plainly: cells. The class given is cell-based. The following applies: Homo sapiens, A-375; MTT assay, 48 h. Here is the method:
as §1

A further assay has as its system MCF-7. Kind of assay: cells. Particulars: Homo sapiens, MCF7; MTT assay, 48 h. The class given is cell-based. Here is the method:
as §1

Another assay has as its system A549. Kind of assay: cells. It is filed as cell-based. Particulars: Homo sapiens, MTT assay, 48 h. On the procedure:
as §1

For the next assay, the system named is mitosis cell cycle. Also on record: method as in Taylor, 1965. Particulars: concentration of 50 nM; ref Taylor, 1965; cited from earlier work.

In general, IC50 refers to the concentration at which inhibition is half-maximal. Lower therefore signals inhibition by little substance. As for `CC(=O)O[C@H]1C(=O)[C@@]2(C)[C@H]([C@H](OC(=O)c3ccccc3)[C@]3(O)C[C@H](OC(=O)[C@H](O)[C@@H](NC(=O)c4ccccc4)c4ccccc4)C(C)=C1C3(C)C)[C@]1(OC(C)=O)CO[C@@H]1C[C@@H]2O` [Paclitaxel], the 50% inhibitory concentration (IC50) in the assay with MDA-MB 231 amounted to 0.02 ± 0.002 µM; in the assay on A375 it was 0.017 ± 0.028 µM; in the assay on MCF-7, 0.014 ± 0.001 µM; in the assay on A549, 0.028 ± 0.008 µM.

For the compound `COc1cc2c(c(OC)c1OC)-c1ccc(OC)c(=O)cc1[C@@H](NC(C)=O)CC2` [Colchicine], the “block of mitotic cells” value in the assay with mitosis cell cycle is “blocks almost all the prophase, metaphase, and anaphase cells”.
